Converted amounts (≈) assume the structure as drawn.
How the values were obtained:
H. influenzae = test: Minimal inhibitory concentration, two-fold agar-plate dilution method; format: cell-based; conditions: Haemophilus influenzae, HI-agar, 37°C for 20 hours
Method: (§1) In vitro antibacterial activity was determined by the two-fold agar-plate dilution method as described below.
(§2) One loopful of an overnight culture of each test strain in Trypticase-soy broth (10^8 viable cells per ml) was streaked on heart infusion agar (HI-agar)containing graded concentrations of representative test compound, and the minimal inhibitory concentration (MIC) was expressed in terms of µg/ml after incubation at 37°C for 20 hours.

E. coli = test: as above; format: cell-based; conditions: Escherichia coli, HI-agar, 37°C for 20 hours
Method: as §1, §2

S. aureus = test: as above; format: cell-based; conditions: Staphylococcus aureus, HI-agar, 37°C for 20 hours
Method: as §1, §2

[1] = Urinary excretion after oral administration (disc-plate diffusion bioassay); format: in vivo, Male JCL SD strain rats; conditions: rat; rats, 20 mg /kg oral, suspended in 0.5% methyl cellulose; urine 0 to 6 and 6 to 24 hours; Bacillus subtilis ATCC 6633 as test organism; read-out: Urinary recovery in 24 hours
Method: Male JCL SD strain rats (age, 6-7 weeks) were used. Test compound was suspended in 0.5% methyl cellulose solution. The rats were starved overnight before dosing with 20 mg /kg. Urine samples were collected at 0 to 6 and 6 to 24 hours after oral administration were measured by the disc-plate diffusion method using Bacillus subtilis ATCC 6633 as test organism and sodium citrate agar (0.8% sodium citrate, 0.5% polypeptone, 0.3% beef extract and 1.0% agar) as the test medium. The plate were incubated at 37°C for 18 hours and the zone of inhibition were measured.

With `Nc1nc(/C(=N/O)C(=O)N[C@@H]2C(=O)N3C(C(=O)O)=C(SCc4cn[nH]c4)CS[C@H]23)cs1` [(3), 7β-[2-(2-Aminothiazol-4-yl)-2-(Z)-(hydroxyimino)-acetamido]-3-[(pyrazol-4-yl)methylthio]-3-cephem-4-carboxylic acid] the MIC (H. influenzae) was 0.129 µg/mL (≈ 0.268 µM), the MIC (E. coli) was 0.033 µg/mL (≈ 0.0685 µM) and the MIC (S. aureus) was 0.23 µg/mL (≈ 0.478 µM). The dose excreted at 24 h [1] was 50%.
Work on `Nc1nc(/C(=N/O)C(=O)N[C@@H]2C(=O)N3C(C(=O)O)=C(SCc4ccncc4)CS[C@H]23)cs1` [Comparative (1), 7β-[2-(2-Aminothiazol-4-yl)-2-(Z)-(hydroxyimino)-acetamido]-3-[(4-pyridyl)methylthio]-3-cephem-4-carboxylic acid] yielded an MIC (H. influenzae) of 0.067 µg/mL (≈ 0.136 µM), an MIC (E. coli) of 0.061 µg/mL (≈ 0.124 µM) and an MIC (S. aureus) of 0.143 µg/mL (≈ 0.29 µM).
`Cc1nnsc1CSC1=C(C(=O)O)N2C(=O)[C@@H](NC(=O)/C(=N\O)c3csc(N)n3)[C@H]2SC1` [Comparative (2), 7β-[2-(2-Aminothiazol-4-yl)-2-(Z)-(hydroxyimino)-acetamido]-3-[(4-methyl-1,2,3-thiadiazol-5-yl)methylthio]-3-cephem-4-carboxylic acid] gave an MIC (H. influenzae) of 0.118 µg/mL (≈ 0.23 µM), an MIC (E. coli) of 0.072 µg/mL (≈ 0.14 µM) and an MIC (S. aureus) of 0.167 µg/mL (≈ 0.325 µM).

Reference: patent publication EP0667868B1, “CEPHEM COMPOUNDS” (FUJISAWA PHARMACEUTICAL CO., LTD., priority 1993, dated 1995)
